Reference: US6593365B1, “Diflunisal esters and related compounds” (The University of Queensland, priority 1997, dated 2003)
Entries after “also recorded” stand apart in the source; their conditions may differ.

Key:
[1] = test system: platelets (platelet cyclooxygenase acylation); assay: Platelet washing study (ADGS); assay type: cell-based, human; conditions: platelet-rich plasma pretreated with drug at 37° C.; 200 μM arachidonic acid; before/after two-fold washing
Source text: It is generally accepted that aspirin inhibits platelet cyclooxygenase through an irreversible acetylation process. In separate experiments, the platelet acylation by these O-acyl salicylates was investigated. It is hypothesised that if the acylation were reversible, then the O-acyl moieties might be removed by platelet washing. Consequently, the washed platelets would become susceptible to aggregation by arachidonic acid.
A platelet-washing technique, ADGS (albumin density gradient separation) similar to one used by Spriggs and Alexander (Spriggs, 1960, Nature 188 863), was employed for this purpose. The principle underlying ADGS is simply that of centrifuging platelets into a continuous density gradient produced by mixing the interface between platelet-rich plasma and 40-45% bovine serum albumin. Thereby the platelets are gently sedimented into a zone with a specific gravity equal to their own, and they are protected by the cushion of albumin from disruptive squashing on the hard surface of the centrifuge tube.
Flat-bottomed, polystyrene tubes of 10 mL capacity with stopper were used for platelet washing by ADGS. Pasteur pipettes were siliconised and used for transferring plasma and wash fluid. Stirring rods were made from Pasteur pipettes by heating the tips, forming a right-angle ben approximately 1 cm long and then siliconised. […]

[2] = at 25° C. (Foye 1989); cited from earlier work
[3] = cited from earlier work

| Compound | Platelet response to arachidonic acid after pretreatment (platelet washing study) [1] | pKa [2] | solubility ([3]; at 25° C., The Merck Index 1983) | Maximum solubility ([3]; water, 25° C., literature value (Merck Index)) |
| --- | --- | --- | --- | --- |
| CCCCCC(=O)Oc1ccccc1C(=O)O [Compound C6SA, n-hexanoylsalicylic acid] | non-reversibly inhibited; also recorded: still refractory to arachidonic acid | – | – | – |
| O-acetylsalicylic acid [Compound C2SA, reference compound] | non-reversibly inhibited; also recorded: still refractory to arachidonic acid | 3.5 | 18.5 mM | 18.5 mM |
